Read-outs that look alike come from different tables or passages of the source.
Tests used:
CK2α1/β = CK2α1/β (Homo sapiens (Human), UniProt P68400); assay: Kinase inhibition profile (HTRF / ADP Glo kinase assay); format: biochemical
Experimental: (§1) HTRF kinase assay: 2×ATP and substrate solution as well as 2× kinase and metal solution were prepared with assay buffer. 25 nL of compound was transferred to 384-well assay plate by Echo 655. After centrifugation, 2.5 μL of 2× kinase/metal ion solution was added to the 384-well assay plate followed by incubation at 25° C. for 10 min. 2.5 μL of 2× substrate and ATP solution was added to the wells followed by incubation at 25° C. for 60 min. 2× XL665 and antibody solution was prepared with assay buffer. 5 μL of kinase detection reagent was added to the wells followed by incubation at 25° C. for 60 min. Fluorescence signals at 620 nm (Cryptate) and 665 nm (XL665) were read with a microtiter plate reader. ADP Glo kinase assay: 2×ATP and substrate solution as well as 2× kinase and metal solution were prepared with assay buffer. 20 nL of compound was transferred to 384-well assay plate by Echo 655. 2 μL of 2× kinase/metal ion solution was added followed by incubation at 25° C. for 10 min in the 384-well assay plate. 2 μL of 2× substrate and ATP solution was added to the wells followed by incubation at 25° C. for 60 min. 4 μL of ADP Glo reagent was added to the wells followed by incubation at 25° C. for 40 min. 8 μL of kinase test reagent was added to the wells followed by incubation at 25° C. for 40 min. The luminescence signals were recorded on a microtiter plate reader. Data analysis: the reaction control (0.5% DMSO) reading was set to 0% inhibition, and the background (10 μM positive control) reading was set to 100% inhibition, then the percent inhibition for each test solution was calculated and the results are shown in Table 2 and FIG. 3.

ALK 4 = ALK 4 (Homo sapiens (Human), UniProt P36896); assay: as above; format: biochemical
ALK 4, sequence (P36896 24-505, species assumed): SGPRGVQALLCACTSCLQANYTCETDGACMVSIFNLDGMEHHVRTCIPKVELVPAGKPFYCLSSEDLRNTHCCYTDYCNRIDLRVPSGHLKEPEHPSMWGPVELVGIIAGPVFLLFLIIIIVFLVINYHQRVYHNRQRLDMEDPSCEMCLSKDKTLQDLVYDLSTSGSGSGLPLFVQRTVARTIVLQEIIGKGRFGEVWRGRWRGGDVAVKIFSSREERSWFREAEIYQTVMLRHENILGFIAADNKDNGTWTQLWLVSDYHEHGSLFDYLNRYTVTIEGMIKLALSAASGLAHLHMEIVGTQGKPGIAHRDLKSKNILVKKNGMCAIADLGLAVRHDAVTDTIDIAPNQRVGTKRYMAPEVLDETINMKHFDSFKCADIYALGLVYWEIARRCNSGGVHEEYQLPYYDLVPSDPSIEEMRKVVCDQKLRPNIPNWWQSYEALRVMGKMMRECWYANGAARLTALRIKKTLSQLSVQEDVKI
Experimental: as §1

CDK2/CycE1 = CDK2/CycE1 (Homo sapiens (Human), UniProt P24941); assay: as above; format: biochemical
Experimental: as §1

CK1γ2 = CK1γ2 (Homo sapiens (Human), UniProt P78368); assay: as above; format: biochemical
CK1γ2, sequence (P78368 whole entry): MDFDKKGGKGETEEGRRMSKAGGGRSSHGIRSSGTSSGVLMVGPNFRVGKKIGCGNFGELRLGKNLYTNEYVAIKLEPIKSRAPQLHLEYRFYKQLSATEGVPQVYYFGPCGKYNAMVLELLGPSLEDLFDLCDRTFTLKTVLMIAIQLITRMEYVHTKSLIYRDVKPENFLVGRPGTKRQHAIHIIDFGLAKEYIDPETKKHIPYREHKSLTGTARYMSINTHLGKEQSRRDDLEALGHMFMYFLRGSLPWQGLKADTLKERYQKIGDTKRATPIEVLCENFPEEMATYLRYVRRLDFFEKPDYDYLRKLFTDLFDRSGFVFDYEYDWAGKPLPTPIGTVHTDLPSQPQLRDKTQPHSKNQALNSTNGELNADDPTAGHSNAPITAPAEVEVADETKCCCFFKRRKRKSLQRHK
Experimental: as §1

AKT1 = AKT1 (Homo sapiens (Human), UniProt P31749); assay: as above; format: biochemical
AKT1, sequence (P31749 whole entry, species assumed): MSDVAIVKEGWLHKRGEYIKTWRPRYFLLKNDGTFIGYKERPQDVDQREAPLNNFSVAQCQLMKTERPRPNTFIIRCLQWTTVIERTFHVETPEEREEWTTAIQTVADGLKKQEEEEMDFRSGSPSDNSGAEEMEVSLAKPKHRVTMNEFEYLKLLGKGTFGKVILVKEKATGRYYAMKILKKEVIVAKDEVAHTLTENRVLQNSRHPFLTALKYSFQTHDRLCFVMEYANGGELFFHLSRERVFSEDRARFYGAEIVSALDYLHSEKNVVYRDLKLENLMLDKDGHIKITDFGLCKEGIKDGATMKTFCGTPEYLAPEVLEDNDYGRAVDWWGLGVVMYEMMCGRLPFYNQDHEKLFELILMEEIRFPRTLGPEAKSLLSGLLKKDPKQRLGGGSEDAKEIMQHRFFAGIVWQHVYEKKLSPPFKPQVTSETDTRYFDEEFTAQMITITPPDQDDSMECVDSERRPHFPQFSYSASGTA
Experimental: as §1

HPK1 = HPK1 (Homo sapiens (Human), UniProt Q92918); assay: as above; format: biochemical
HPK1, sequence (Q92918 whole entry, species assumed): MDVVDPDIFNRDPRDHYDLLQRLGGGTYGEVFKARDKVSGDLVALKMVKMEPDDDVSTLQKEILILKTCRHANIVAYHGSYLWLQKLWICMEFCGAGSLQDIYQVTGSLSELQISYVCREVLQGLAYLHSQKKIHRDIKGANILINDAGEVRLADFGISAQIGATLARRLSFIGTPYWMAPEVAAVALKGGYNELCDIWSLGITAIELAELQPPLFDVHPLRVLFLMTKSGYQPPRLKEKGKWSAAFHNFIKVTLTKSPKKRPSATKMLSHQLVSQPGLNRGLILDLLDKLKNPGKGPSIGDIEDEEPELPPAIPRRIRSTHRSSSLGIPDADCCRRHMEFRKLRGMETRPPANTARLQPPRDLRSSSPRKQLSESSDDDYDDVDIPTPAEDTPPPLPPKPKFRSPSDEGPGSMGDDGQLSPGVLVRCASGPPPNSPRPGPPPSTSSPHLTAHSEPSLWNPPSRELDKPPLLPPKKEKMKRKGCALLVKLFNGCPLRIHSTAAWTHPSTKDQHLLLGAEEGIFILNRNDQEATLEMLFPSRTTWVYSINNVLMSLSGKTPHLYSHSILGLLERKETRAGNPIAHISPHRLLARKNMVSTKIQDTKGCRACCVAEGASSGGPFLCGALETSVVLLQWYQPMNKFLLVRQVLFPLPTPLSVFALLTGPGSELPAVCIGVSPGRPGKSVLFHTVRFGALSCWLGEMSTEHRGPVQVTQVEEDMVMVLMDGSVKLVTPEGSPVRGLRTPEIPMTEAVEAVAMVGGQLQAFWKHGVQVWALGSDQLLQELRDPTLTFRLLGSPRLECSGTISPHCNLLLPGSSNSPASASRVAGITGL
Experimental: as §1

DDR1 = DDR1 (Homo sapiens (Human), UniProt Q08345); assay: DDR1 kinase inhibition assay (FAM-labeled peptide), IC50; format: biochemical
DDR1, sequence (Q08345 other isoform, or with tags, fused parts or gaps isoform Q08345-2): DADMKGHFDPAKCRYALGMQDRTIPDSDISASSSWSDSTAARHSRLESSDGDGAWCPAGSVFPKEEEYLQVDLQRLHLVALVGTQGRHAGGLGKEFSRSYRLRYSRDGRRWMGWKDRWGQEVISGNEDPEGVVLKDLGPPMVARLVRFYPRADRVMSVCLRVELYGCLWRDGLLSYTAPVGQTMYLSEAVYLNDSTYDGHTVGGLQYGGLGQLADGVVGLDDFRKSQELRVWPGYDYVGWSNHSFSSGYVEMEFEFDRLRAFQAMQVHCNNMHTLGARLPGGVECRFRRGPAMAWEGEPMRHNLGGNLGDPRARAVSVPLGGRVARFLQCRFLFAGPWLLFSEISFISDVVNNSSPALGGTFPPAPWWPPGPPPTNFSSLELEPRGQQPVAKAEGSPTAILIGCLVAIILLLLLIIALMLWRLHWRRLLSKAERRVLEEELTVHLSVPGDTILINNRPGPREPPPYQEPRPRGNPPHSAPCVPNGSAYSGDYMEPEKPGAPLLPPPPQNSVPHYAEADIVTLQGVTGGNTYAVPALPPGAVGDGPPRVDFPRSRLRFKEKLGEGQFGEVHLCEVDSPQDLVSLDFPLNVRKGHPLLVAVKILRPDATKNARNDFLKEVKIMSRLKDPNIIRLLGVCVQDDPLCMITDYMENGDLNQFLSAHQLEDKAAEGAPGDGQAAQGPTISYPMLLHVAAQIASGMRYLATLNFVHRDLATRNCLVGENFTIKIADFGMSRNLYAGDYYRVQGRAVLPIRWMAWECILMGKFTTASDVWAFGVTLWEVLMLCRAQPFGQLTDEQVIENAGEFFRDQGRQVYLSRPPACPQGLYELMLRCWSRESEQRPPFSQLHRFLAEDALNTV
Experimental: 1× kinase base buffer (50 mM HEPES, pH 7.5, 0.0015% Brij-35) and a stop buffer (100 mM HEPES, pH 7.5, 0.015% Brij-35, 0.2% Coating Reagent #3, 50 mM EDTA) were prepared for testing kinases.
The compounds were diluted with 100% DMSO to 100 times the highest final inhibitor concentration required in the reaction. 100 μl of dilution of the compound was transferred to wells of a 96-well plate. For example, 100000 nM solution of the compound in DMSO was prepared in this step in case that an inhibitor concentration of 1000 nM is required. 100 μl of 100% DMSO was added to two empty wells of a 96-well plate for no compound control and no enzyme control. This plate was labeled as the source plate. A new 96-well plate with 5 μl of compound transferred from the source plate is used as an intermediate plate. 95 μl of 1× kinase buffer was added to each well of the intermediate plate. The compounds in the intermediate plate was mixed on a shaker for 10 minutes.
5 μl of sample in each well from the 96-well intermediate plate was transferred to the 384-well plate in duplicate. For example, well A1 of the 96-well plate was transferred to wells A2 and A1 of the 384-well plate, and well A2 of the 96-well plate was transferred to wells A3 and A4 of the 384-well plate, and so forth. 2.5× enzyme solution was prepared: 1× kinase basal buffer with added kinase. 2.5× peptide solution was prepared: 1× kinase basal buffer with added FAM-labeled peptide and ATP. To an assay plate already contained 5 μl of 10% dimethyl sulfoxide compound, 2.5× enzyme solution was transferred, and each well of the 384-well assay plate was added 10 μl of 2.5× enzyme solution. After incubation at room temperature for 10 minutes, 2.5× peptide solution was transferred to the assay plate. Each well of the 384-well assay plate was added 10 μl of 2.5× peptide solution. Kinase reaction and termination: incubation at 28° C. for a specified period followed by the addition of 25 μl stop buffer to stop the reaction. The data was read and collected.

[1] = system: α-smooth muscle actin (α-SMA) expression; assay: Inhibition of DDR1-mediated lung fibrosis (α-SMA expression) in hTGFβ1-stimulated MRC-5 cells (western blot); format: cell-based, Human; details: for Ratio of α-SMA to GAPDH / α-SMA signal: hTGFβ1 2.5 ng/ml
Experimental: Human embryonic lung fibroblast MRC-5 cells were inoculated in a 6-well plate and incubated overnight at 37° C. and 5% CO2. 2 μL of compound C1 (gradient concentration in DMSO solution) was added to a cell plate with prepared cells, and was incubated overnight at 37° C. and 5% CO2. hTGFβ1 (which can stimulate DDR1-mediated lung fibrosis manifested by up-regulation of α-smooth muscle actin (α-SMA) expression) was added to the cell plate and incubated at 37° C. and 5% CO2 for 2 hours. Harvest of cell lysates: culture medium was aspirated as much as possible at the end of the culture until the wells were almost dry. 200 μL of ice-cold lysis buffer was added. Lysate was collected into a 1.5 mL eppendorf tube through scraping. Brief vortex was followed by spinning at 12000 rpm for 15 minutes in a refrigerated centrifuge. 5× protein electrophoresis loading buffer was added and then the sample was boiled. The sample supernatant was added to a SDS-PAGE gel, followed by electrophoresis, electrotransfer, blocking, primary antibody (anti-α-SMA antibody and anti-GAPDH antibody) incubation, washing, secondary antibody incubation, washing, and fluorescence development.

[2] = 1 uM Compound C1, read-out: % Inhibition (First measurement)
[3] = 1 uM Compound C1, read-out: % Inhibition (Second measurement)
[4] = 1 uM Compound C1, read-out: Average inhibition (%)

CK2α1/β, sequence (P68400 whole entry): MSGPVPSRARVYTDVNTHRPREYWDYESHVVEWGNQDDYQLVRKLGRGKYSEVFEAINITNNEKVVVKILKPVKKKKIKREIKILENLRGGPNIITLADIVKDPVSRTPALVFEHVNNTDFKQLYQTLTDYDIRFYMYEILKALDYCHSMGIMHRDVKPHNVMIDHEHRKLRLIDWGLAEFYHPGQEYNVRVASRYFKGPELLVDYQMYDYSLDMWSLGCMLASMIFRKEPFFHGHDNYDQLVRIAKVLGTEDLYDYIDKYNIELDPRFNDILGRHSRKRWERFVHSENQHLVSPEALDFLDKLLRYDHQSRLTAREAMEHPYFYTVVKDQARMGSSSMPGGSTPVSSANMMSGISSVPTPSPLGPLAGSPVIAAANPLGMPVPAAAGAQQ
CK2α1/β, sequence (P67870 whole entry partner): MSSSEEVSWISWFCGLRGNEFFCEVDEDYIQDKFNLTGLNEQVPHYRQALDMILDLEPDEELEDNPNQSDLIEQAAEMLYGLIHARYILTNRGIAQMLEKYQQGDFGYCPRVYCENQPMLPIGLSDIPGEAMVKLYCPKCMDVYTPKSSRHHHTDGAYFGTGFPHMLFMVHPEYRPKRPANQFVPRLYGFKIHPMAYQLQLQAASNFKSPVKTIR

With `Cc1ccc(C(=O)Nc2ccccn2)cc1C#Cc1cnc2cc(C3=CCCCC3)cnn12` [Compound C1, 3-{2-[7-(cyclohex-1-en-1-yl)imidazo[1,2-b]pyridazin-3-yl]ethynyl}-4-methyl-N-(pyridin-2-yl)benzamide] the inhibition at 1 µM (CK2α1/β; [2]) was -5.19%, the inhibition at 1 µM (CK2α1/β; [3]) was 5.01% and the inhibition at 1 µM (CK2α1/β; [4]) was -0.09%. It also gave an inhibition at 1 µM (ALK 4; [2]) of -6.24%, an inhibition at 1 µM (ALK 4; [3]) of 14.8% and an inhibition at 1 µM (ALK 4; [4]) of 4.25%. For the same compound, the inhibition at 1 µM (CDK2/CycE1; [2]) was 0.53%, the inhibition at 1 µM (CDK2/CycE1; [3]) was 12.6% and the inhibition at 1 µM (CDK2/CycE1; [4]) was 6.56%. The inhibition at 1 µM (CK1γ2; [2]) was -6.26%, the inhibition at 1 µM (CK1γ2; [3]) was -6.88% and the inhibition at 1 µM (CK1γ2; [4]) was -6.57%. It also gave an inhibition at 1 µM (AKT1; [2]) of 7.17%, an inhibition at 1 µM (AKT1; [3]) of 4.56% and an inhibition at 1 µM (AKT1; [4]) of 5.87%. It also gave an inhibition at 1 µM (HPK1; [2]) of 23.9%, an inhibition at 1 µM (HPK1; [3]) of 24.7% and an inhibition at 1 µM (HPK1; [4]) of 24.3%. For the same compound, the IC50 (DDR1) was 23 nM, the “Inhibition of DDR1-mediated lung fibrosis at the cellular level (in words)” value [1] was “can inhibit DDR1-mediated lung fibrosis at the cellular level” and the inhibition at 0.00244 µM ([1]; Homo sapiens, MRC5, hTGFβ1 2.5 ng/ml, compound C1 2.44 nM) was 103%. The inhibition at 0.00977 µM ([1]; Homo sapiens, MRC5, hTGFβ1 2.5 ng/ml, compound C1 9.77 nM) was 103%, the inhibition at 0.03906 µM ([1]; Homo sapiens, MRC5, hTGFβ1 2.5 ng/ml, compound C1 39.06 nM) was 103% and the inhibition at 0.15625 µM ([1]; Homo sapiens, MRC5, hTGFβ1 2.5 ng/ml, compound C1 156.25 nM) was 109%. The inhibition at 0.625 µM ([1]; Homo sapiens, MRC5, hTGFβ1 2.5 ng/ml, compound C1 625.00 nM) was 48.2%, the inhibition at 2.5 µM ([1]; Homo sapiens, MRC5, hTGFβ1 2.5 ng/ml, compound C1 2500.00 nM) was 11.7% and the “Ratio of α-SMA to GAPDH” value ([1]; compound C1 2.44 nM) was 1.1612. The α-SMA signal ([1]; compound C1 2.44 nM) was 1390356, the “Ratio of α-SMA to GAPDH” value ([1]; compound C1 9.77 nM) was 1.1646 and the α-SMA signal ([1]; compound C1 9.77 nM) was 1386165. The “Ratio of α-SMA to GAPDH” value ([1]; compound C1 39.06 nM) was 1.1681, the α-SMA signal ([1]; compound C1 39.06 nM) was 1304919 and the “Ratio of α-SMA to GAPDH” value ([1]; compound C1 156.25 nM) was 1.2342. The α-SMA signal ([1]; compound C1 156.25 nM) was 1353660, the “Ratio of α-SMA to GAPDH” value ([1]; compound C1 625.00 nM) was 0.5459 and the α-SMA signal ([1]; compound C1 625.00 nM) was 629772. For the same compound, the “Ratio of α-SMA to GAPDH” value ([1]; compound C1 2500.00 nM) was 0.1330 and the α-SMA signal ([1]; compound C1 2500.00 nM) was 4686.
